Reference: US20110053919A1, “Active Compound Combinations Having Insecticidal and Acaricidal Properties” (BAYER CROPSCIENE AG, priority 2006, published 2011)

Tests used:
Format in all cases: in vivo
[1] = tested on: larvae of the mustard beetle (Phaedon cochleariae); assay: Phaedon cochleariae larvae test (sprayed cabbage leaves); details: 100 g/ha, single active compound
Source text: (§1) The expected action for a given combination of two active compounds can be calculated as follows, according to S. R. Colby, Weeds 15 (1967), 20-22:
(§2) • X is the kill rate, expressed as a percentage of the untreated control, when employing active compound A at an application rate of m g/ha or in a concentration of m ppm, • Y is the kill rate, expressed as a percentage of the untreated control, when employing active compound B at an application rate of n g/ha or in a concentration of n ppm and • E is the kill rate, expressed as a percentage of the untreated control, when employing active compounds A and B at application rates of m and n g/ha or in a concentration of m and n ppm, then
(§3) If the actual kill rate exceeds the calculated value, the kill of the combination is superadditive, i.e. a synergistic effect is present. In this case, the actually observed kill rate must exceed the value calculated using the above formula for the expected kill rate (E).
Phaedon cochleariae Larvae Test
(§4) Solvents: 78 parts by weight of acetone • • 1.5 parts by weight of dimethylformamide Emulsifier: 0.5 part by weight of alkylaryl polyglycol ether
(§5) To produce a suitable preparation of active compound, 1 part by weight of active compound is mixed with the stated amounts of solvents and emulsifier, and the concentrate is diluted with emulsifier-containing water to the desired concentration.
Cabbage leaves (Brassica oleracea) are treated by spraying with the active compound preparation of the desired concentration and are populated with larvae of the mustard beetle (Phaedon cochleariae) while the leaves are still moist.
After the desired period of time, the kill in % is determined. 100% means that all beetle larvae have been killed; 0% means that none of the beetle larvae have been killed. The kill rates determined are entered into Colby's formula.

[2] = tested on: green peach aphid (Myzus persicae); assay: Myzus persicae test (spray treatment of infested cabbage leaves); details: single active compound
Source text: as §1, §2, §3, §4, §5
Cabbage leaves (Brassica oleracea) which are heavily infested by the green peach aphid (Myzus persicae) are treated by spraying with the active compound preparation of the desired concentration.
After the desired period of time, the kill in % is determined. 100% means that all aphids have been killed; 0% means that none of the aphids have been killed. The kill rates determined are entered into Colby's formula.

[3] = tested on: larvae of the army worm (Spodoptera frugiperda); assay: Spodoptera frugiperda larvae test (sprayed cabbage leaves); details: single active compound
Source text: as §1, §2, §3
Spodoptera frugiperda Larvae Test
as §4, §5
Cabbage leaves (Brassica oleracea) are treated by spraying with the active compound preparation of the desired concentration and are populated with larvae of the army worm (Spodoptera frugiperda) while the leaves are still moist.
After the desired period of time, the kill in % is determined. 100% means that all caterpillars have been killed; 0% means that none of the caterpillars have been killed. The kill rates determined are entered into Colby's formula.

[4] = tested on: greenhouse red spider mite (Tetranychus urticae); assay: Tetranychus test, OP-resistant/spray treatment (bean leaf disks); details: 0.16 g/ha, single active compound
Source text: as §1, §2, §3
OP-Resistant/Spray Treatment
as §4, §5
Disks of bean leaves (Phaseolus vulgaris) which are infested by all stages of the greenhouse red spider mite (Tetranychus urticae) are sprayed with an active compound preparation of the desired concentration.
After the desired period of time, the activity in % is determined. 100% means that all spider mites have been killed; 0% means that none of the spider mites have been killed.

Row | Compound | Kill in % after 2d [1] [%] | Kill in % after 1d ([2]; 0.8 g/ha) [%] | Kill in % after 1d ([2]; 4 g/ha) [%] | Kill in % after 1d ([2]; 20 g/ha) [%] | Kill in % after 2d ([3]; 20 g/ha) [%] | Kill in % after 6d [4] [%] | Kill in % after 1d ([2]; 100 g/ha) [%] | Kill in % after 2d ([3]; 100 g/ha) [%]
1 | CCOC(=O)OC1=C(c2cc(C)ccc2C)C(=O)N[C@]12CC[C@@H](OC)CC2 [compound (II)] | 0 | 0 | 0 | 0 | 17 | 10 | – | –
2 | CC(C)N1C(=O)N(c2ccccc2)CS/C1=N\C(C)(C)C [buprofezin] | 0 | – | – | – | – | – | – | –
3 | Cc1ccc(/N=C/N(C)/C=N/c2ccc(C)cc2C)c(C)c1 [amitraz] | – | – | – | – | 0 | 0 | – | –
4 | CCOC(=O)OC1=C(c2cc(C)ccc2C)C(=O)NC12CCC(OC)CC2 (centres unmarked) [compound (IIa)] | 0 | 0 | 0 | 0 | 17 | 10 | – | –
5 | N#CCNC(=O)c1cnccc1C(F)(F)F [flonicamid] | 0 | – | – | – | – | – | 30 | –
6 | CC1=NNC(=O)N(/N=C/c2cccnc2)C1 [pymetrozine] | – | 40 | – | – | – | – | – | –
7 | CC(COc1ccc(Oc2ccccc2)cc1)Oc1ccccn1 (centres unmarked) [pyriproxifen, pyriproxyfen] | – | – | – | – | – | – | 0 | 0
